Five molecules from ChEMBL document CHEMBL1201862, “PubChem BioAssay data set” (2004) can be followed below.

The source made the active and inactive calls.

Assay [1] deals with Streptococcus sp. 'group A'. Kind of assay: Streptococcus pyogenes SK(-)GAS viability under kanamycin – luminescence, BacTiterGlo, confirmation, counter-screen for streptokinase expression inhibitor project, dose response (AID 1900). It is filed as functional, organism-based. On the technique in general: The purpose of a counterscreen is to sort out artefacts and off-target activity.

Assay [2] in a line: Fluorescence Cell-Based Dose Response to Identify Inhibitors of Thrombin Receptor-Activating Peptide SFLLRN-Mediated P-Selectin Induction on Platelets. [Related pubchem assays: 1663 (Primary HTS), 1889 (retest at dose ), 1891 (counterscreen), 1678 (Project Summary)]. The format is functional.
Assay [3] deals with Luciferin 4-monooxygenase (Photinus pyralis, UniProt P08659). Kind of assay: inhibition of purified Photinus pyralis luciferase – biochemical, luminescence, dose response (AID 1891).
Luciferin 4-monooxygenase, sequence (P08659 whole entry): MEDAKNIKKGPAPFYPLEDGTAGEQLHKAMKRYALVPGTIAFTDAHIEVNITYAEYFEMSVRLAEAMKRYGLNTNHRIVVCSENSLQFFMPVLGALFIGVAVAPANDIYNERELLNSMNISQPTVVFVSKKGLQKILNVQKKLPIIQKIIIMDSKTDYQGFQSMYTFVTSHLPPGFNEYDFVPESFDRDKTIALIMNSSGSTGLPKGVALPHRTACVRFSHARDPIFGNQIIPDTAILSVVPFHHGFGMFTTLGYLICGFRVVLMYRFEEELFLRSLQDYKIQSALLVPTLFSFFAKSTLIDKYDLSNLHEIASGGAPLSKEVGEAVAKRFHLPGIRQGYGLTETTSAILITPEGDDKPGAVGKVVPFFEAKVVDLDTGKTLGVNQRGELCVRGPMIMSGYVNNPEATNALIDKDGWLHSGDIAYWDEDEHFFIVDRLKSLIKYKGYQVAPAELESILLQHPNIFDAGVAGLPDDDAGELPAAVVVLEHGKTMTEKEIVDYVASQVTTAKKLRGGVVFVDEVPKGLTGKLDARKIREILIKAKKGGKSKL
Assay [4] relates to Streptococcus. Kind of assay: GAS UMAA2166 growth inhibition – luminescence, BacTiterGlo, counter-screen for streptokinase expression inhibitor project, dose response (AID 1915).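 Also: potency for reduction of bacterial viability or growth.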 The format is functional, organism-based.
For assay [5], the target named is T1, Streptokinase A (Streptococcus pyogenes serotype M1, UniProt P10520).
T1 sequence (P10520 whole entry): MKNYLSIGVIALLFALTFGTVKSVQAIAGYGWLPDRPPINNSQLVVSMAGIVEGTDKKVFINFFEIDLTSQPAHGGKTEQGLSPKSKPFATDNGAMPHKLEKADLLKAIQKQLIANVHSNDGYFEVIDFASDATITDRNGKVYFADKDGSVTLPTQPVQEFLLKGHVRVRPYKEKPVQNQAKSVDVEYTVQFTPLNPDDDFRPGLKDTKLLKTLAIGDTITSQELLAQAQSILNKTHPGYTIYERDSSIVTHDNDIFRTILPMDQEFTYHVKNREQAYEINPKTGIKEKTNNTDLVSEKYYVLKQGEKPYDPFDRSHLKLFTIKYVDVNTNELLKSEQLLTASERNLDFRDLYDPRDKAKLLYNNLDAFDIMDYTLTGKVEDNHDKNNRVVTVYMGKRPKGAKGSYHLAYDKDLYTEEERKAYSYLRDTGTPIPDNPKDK
Kind of assay: viability-normalized secreted streptokinase activity reduction – plasminogen activation absorbance, OD405, dose response (AID 1914).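 Also: secreted streptokinase activity via plasminogen activation per viability signal from cell pellet.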 It is filed as functional, Streptococcus pyogenes M1 GAS.

The nature of assay [6]: Luminescence Cell-Based Dose Confirmation HTS to Identify Inhibitors of Platelet Dense Granule Release. [Related pubchem assays: 1663 (Primary HTS), 1678 (Summary of Project)]. It is filed as functional.
In assay [7] the target is T2, Tyrosine-protein phosphatase non-receptor type 7 (Homo sapiens, UniProt P35236).
T2 sequence (P35236 whole entry): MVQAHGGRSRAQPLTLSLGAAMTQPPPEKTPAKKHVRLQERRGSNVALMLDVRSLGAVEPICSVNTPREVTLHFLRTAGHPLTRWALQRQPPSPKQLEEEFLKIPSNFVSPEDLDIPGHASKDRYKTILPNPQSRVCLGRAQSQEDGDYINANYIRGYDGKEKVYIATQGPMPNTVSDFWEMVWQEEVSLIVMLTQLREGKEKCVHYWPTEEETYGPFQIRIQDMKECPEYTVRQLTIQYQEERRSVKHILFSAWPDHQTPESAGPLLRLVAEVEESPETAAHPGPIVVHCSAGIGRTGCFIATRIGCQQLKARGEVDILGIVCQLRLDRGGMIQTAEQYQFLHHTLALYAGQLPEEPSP
Kind of assay: HePTP tyrosine phosphatase activity blockers – biochemical, absorbance, leukemia target, primary screen (AID 521). It is filed as functional.

Assay [8] is described as follows: blockers of HIV-1 ZM109 envelope-driven cell-cell fusion – HeLa effector, CEM target cells, luciferase, cherry-pick, dose response (AID 652058).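 Also: luciferase signal from HIV-1 Env mediated cell-cell fusion of effector and target cells.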 It is filed as functional, cell-based.
Assay [9] deals with COUP transcription factor 2 (Homo sapiens, UniProt P24468). Kind of assay: Luminescence-based cell-based high throughput dose response assay to identify inhibitors of COUP-TFII (NR2F2). The format is functional.
COUP transcription factor 2, sequence (P24468 whole entry): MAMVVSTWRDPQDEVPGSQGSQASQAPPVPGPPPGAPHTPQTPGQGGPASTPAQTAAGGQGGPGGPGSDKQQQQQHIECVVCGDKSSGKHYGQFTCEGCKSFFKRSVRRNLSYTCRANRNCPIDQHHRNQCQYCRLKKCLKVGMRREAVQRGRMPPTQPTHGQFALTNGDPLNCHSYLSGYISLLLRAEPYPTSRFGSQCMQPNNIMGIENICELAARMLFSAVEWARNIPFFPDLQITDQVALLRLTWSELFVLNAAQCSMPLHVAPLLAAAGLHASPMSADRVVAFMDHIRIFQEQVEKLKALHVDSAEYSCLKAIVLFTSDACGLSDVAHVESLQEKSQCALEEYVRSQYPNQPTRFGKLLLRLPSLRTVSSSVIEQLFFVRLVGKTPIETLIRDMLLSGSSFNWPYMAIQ
Assay [10] in a line: HEK-293T viability loss, compound-treated – cell-based, uHTS hits, cytotoxicity control for B/T-cell NF-kB inhibitor project, dose response (AID 489019).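 Also: IC50 reflects cytotoxicity as loss of cell viability.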 The format is functional.
Assay [11] in a line: blockers of HIV-1 envelope-mediated cell-cell fusion – cherry-pick, dose response (AID 652057). It is filed as functional, cell-based.
Assay [12] is described as follows: viability loss in CEM21 cells – cell-based, plate reader, dry powder, cytotoxicity control, dose response (AID 687026). It is filed as functional.
The nature of assay [13]: non-specific 3'UTR reporter inhibition in Clone20-Shn3RL – cell-based, Renilla luciferase, cherry-picked, counter-screen for Shn3 inhibitor project, dose response (AID 624133). It is filed as functional.
The next assay deals with Jurkat. Kind of assay: blockers of NF-kB activation in T cells – Jurkat, luciferase reporter, luminescence, B- and T-cell, dose response (AID 489004).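 Also: NF-kB luciferase reporter Jurkat cells stimulated with PMA plus ionomycin.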 The format is functional, cell-based. The settings on record: Homo sapiens. For orientation: A reporter such as luciferase makes a cellular process visible.
Assay [14] can be described thus: reduction of Shn3 3'UTR-driven luciferase in osteoblasts – cell-based, Clone20 osteoblasts, firefly luciferase, cherry-picked, dose response (AID 624132).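 Also: firefly luciferase luminescence from reporter carrying the Shn3 3'UTR in osteoblasts.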 The format is functional.
The target of the next assay is Galanin receptor type 2 (Homo sapiens, UniProt O43603). Kind of assay: Dose Response cell-based high-throughput screening assay to identify antagonists of galanin receptor 2 (GALR2). [Related pubchem assays: 828, 866 ]. The format is functional.
Galanin receptor type 2, sequence (O43603 whole entry, the tested form may be a part): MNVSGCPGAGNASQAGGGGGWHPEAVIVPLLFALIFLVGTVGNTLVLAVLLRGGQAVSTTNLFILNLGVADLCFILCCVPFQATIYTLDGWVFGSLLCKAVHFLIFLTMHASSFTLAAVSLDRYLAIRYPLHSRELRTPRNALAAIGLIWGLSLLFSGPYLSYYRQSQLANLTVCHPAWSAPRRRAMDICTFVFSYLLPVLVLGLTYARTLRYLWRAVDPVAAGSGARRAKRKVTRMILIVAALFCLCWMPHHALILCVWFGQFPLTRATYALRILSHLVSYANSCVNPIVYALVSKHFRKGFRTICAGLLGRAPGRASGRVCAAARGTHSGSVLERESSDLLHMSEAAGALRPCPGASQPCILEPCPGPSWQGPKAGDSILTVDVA
Assay [15] can be described thus: off-target signal loss in HeLa-CEM21 co-culture – HeLa F-luc CTL cells, cherry-picked, counter-screen for HIV-1 Env fusion inhibitor project, dose response (AID 652040).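 Also: potency for signal decrease marking cytotoxic or nonspecific inhibition.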 The format is functional, cell-based.
Assay [16] in a line: loss of viability in HepG2 cells – cell-based, CellTiter-Glo, cherry-picked, cytotoxicity control for Shn3 inhibitor project, dose response (AID 624134). The format is functional. (ATP-based viability assays read luminescence as a measure of living cells.)
A short description of assay [17]: HIV-1 AD8 envelope cell-cell fusion blockers – cherry-pick, dose response (AID 652062).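 Also: luciferase signal from cell-cell fusion driven by HIV-1 clade B AD8 Env; potency is for inhibitors of fusion seen as a drop in luminescence.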 The format is functional, cell-based.
For a further assay, the system named is INS1. Kind of assay: INS-1E survival protection against cytokine death – cell-based, luminescence, retest, dose response (AID 449756).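 Also: cell death triggered by IL-1 beta plus TNF-alpha plus IFN-gamma mixture; protective hits raise ATP signal compared with cytokine alone wells.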 The format is functional. The settings on record: Rattus norvegicus.
Assay [18] deals with T1, Streptokinase A. Kind of assay: Absorbance Microorganism-Based Dose Response Follow up to Identify Inhibitors of Streptokinase Expression. [Related pubchem assays: 1677 (Project Summary), 1915, 1914, 1902 (Retest at Dose), 1900 (Counter Screen), 1662 (Primary HTS)]. The format is functional, Streptococcus pyogenes M1 GAS.
Assay [19] has as its system Streptococcus. Kind of assay: GAS bacterial viability reduction – luminescence, BacTiter-Glo, strain UMAA2166, counter-screen for streptokinase expression inhibitor project, dose response (AID 2477). The format is functional, organism-based.
The subject of a further assay is Vero. Kind of assay: Vero cell viability after compound exposure – synthesized analogs, set II, cytotoxicity control for West Nile virus antiviral project, SAR follow-up (AID 2402). The format is functional. The settings on record: Chlorocebus sabaeus.

One may read the EC50 as the concentration at which the effect is half-maximal. `CC(=O)Oc1ccc(-c2nc(-c3cccnc3)no2)cc1`: the EC50 in [1] was 4.89 µM (active); in assay [2], 30 µM (not active); in [3] it was 8.16 µM (active); in the assay on Streptococcus [4] it was 17.3 µM (active); at Streptokinase A [5], > 150 µM (not active); in [6], < 0.701 µM (active).
As a reminder, the IC50 is the concentration needed to halve the response being measured. With `COc1ccccc1C(=O)Nc1ccccc1C(=O)N1CCCC1`, the IC50 in assay [7] is recorded as > 100 µM (not active).
Usually AC50 stands for the concentration at which the activity in the assay is half-maximal. On to `CCOc1ccc(S(=O)(=O)NCc2ccncc2)cc1`, for which the AC50 is < 0.26 µM (active) in [8]; 1.36 µM (active) in [11]; > 70 µM (inactive) in assay [12]; 10.5 µM (active) in [13]; 0.261 µM (active) in assay [14]; > 70 µM (inactive) in assay [15]. Also, the figures for the AC50 (in assay [16]; in [17]; with INS1) were 0.603 µM (active), 2.72 µM (active) and 1.08 µM (active), respectively. Moreover, the IC50 in assay [9] was 2.27 µM (active); in assay [10], > 80 µM (inactive); in the assay with Jurkat, > 80 µM (inactive); on Galanin receptor type 2, > 42 µM (not active).
`CCCOc1ccc(-c2nc(Oc3ccccc3)c3ccccc3n2)cc1`: the values for the EC50 on Streptokinase A [18] and in the assay on Streptococcus [19] were 71.6 µM (active) and > 500 µM (not active), respectively.
As usually defined, the CC50 is the concentration that lowers cell viability or growth by half. In the case of `COc1ccc(-c2csc(N(C)C(=O)c3ccccc3Cl)n2)cc1`, the CC50 in the assay on Vero is > 50 µM (active).
